Tests used:
[1] = test system: Maus; conditions: p.o., acute toxicity; cited from earlier work
[2] = test system: cardialen β-Rezeptoren; assay: LV-dP/dtmax (cardiac contractility) response to isoprenaline in anaesthetised, despinalised rats before and after PAF infusion; assay type: in vivo, Ratten; design: Steigerung von LV-dP/dtmax durch Isoprenalin (Ansprechbarkeit der cardialen β-Rezeptoren): dose or concentration left out as unconfirmed; conditions: for Steigerung LV-dP/dtmax: despinalised rats, n=6, control before PAF
Procedure: Die neu aufgefundene Wirkung der PAF-Antagonisten wurde beispielsweise an B = 4-(2-Chlorphenyl)-9-methyl-2-[3-(4-morpholinyl)-3-propanon-1-yl]-6H-thieno[3.2-f][1.2.4]triazolo[4.3-a][1.4]-diazepin wie folgt geprüft: Männliche Ratten (Chbb:THOM, ca. 300 g) werden mit Hexobarbital-Natrium (150 mg/kg i.p.) narkotisiert. Die Trachea wird kannuliert und danach werden die Tiere despinalisiert. Die Tiere werden künstlich beatmet und mittels einem Heizkissen auf 37°C gehalten. Zur Messung des linksventrikulärem Drucks wird über die Arteria Carotis in den linken Ventrikel ein Millar Tipmanometer geschoben. Dieses Signal wird elektronisch differentiert und ist als LV-dP/dtmax ein Maß für die Kontraktionskraft des Herzes. Über einen Katheter in der anderen Arteria Carotis wird der arterielle Blutdruck gemessen. Die zu untersuchenden Substanzen werden intravenös über eine Kanüle in der Vena jugularis injiziert.
Isoprenalin (3-100 ng/kg) steigert dosisabhänig LV-dP/dtmax von 300 ± 90 bis 4450 ± 290 mm Hg/s (n=6). Nach einer 45-minütigen Infusion von PAF (50-100 ng/kg/min.) wurde wieder Isoprenalin (3 bis 100 ng/kg) injiziert. […] Dann wurde die Substanz B (10 mg/kg i.v.) verabreicht und nach 10 Minuten wurde wieder Isoprenalin injiziert.

**Q.** Which LD₅₀ [1] does the source give for Cc1nnc2n1-c1sc3c(c1C(c1ccccc1Cl)=NC2)CC(C(=O)N1CCOCC1)C3 (single isomer, unassigned; (-)) [Substanz A, (-)-6-(2-Chlorphenyl)-8,9-dihydro-1-methyl-8-[(4-morpholinyl)carbonyl]-4H,7H-cyclopenta[4.5]thieno[3,2-f][1.2.4]triazolo[4.3-a][1.4]diazepin] here?
**A.** 1960 mg/kg

**Q.** What does the source list for CC(C)NCC(O)c1ccc(O)c(O)c1 (stereo not drawn) [Isoprenalin]?
**A.** Steigerung LV-dP/dtmax ([2]; Isoprenalin 3 ng/kg i.v. (lower end of dose range 3-100 ng/kg)): 300 ± 90 mm Hg/s; Steigerung LV-dP/dtmax ([2]; Isoprenalin 100 ng/kg i.v. (upper end of dose range 3-100 ng/kg)): 4450 ± 290 mm Hg/s

**Q.** What does the source list for CCCCCCCCCCCCCCCCOCC(COP(=O)([O-])OCC[N+](C)(C)C)OC(C)=O (stereo not drawn) [PAF]?
**A.** Effekte von 3 und 10 ng/kg Isoprenalin (LV-dP/dtmax) ([2]; after 45 min infusion of PAF 50-100 ng/kg/min, rats): nicht beeinflußt; positiv inotrope Wirkung von dem Histamin-2 Agonist Dimaprit ([2]; effect of PAF on Dimaprit 1-10 mg/kg): absolut nicht beeinflußt; positiv inotrope Wirkung von dem Adenylcyclase Aktivator Forskolin ([2]; effect of PAF on Forskolin 3-20 µg/kg): absolut nicht beeinflußt

**Q.** What does the source list for Cc1nnc2n1-c1sc(CCC(=O)N3CCOCC3)cc1C(c1ccccc1Cl)=NC2 [Substanz B, 4-(2-Chlorphenyl)-9-methyl-2-[3-(4-morpholinyl)-3-propanon-1-yl]-6H-thieno[3.2-f][1.2.4]triazolo[4.3-a][1.4]diazepin]?
**A.** Steigerung von LV-dP/dtmax durch Isoprenalin (Ansprechbarkeit der cardialen β-Rezeptoren) ([2]; isoprenaline injected again after 10 min, responsiveness fully restored, rats): nicht signifikant unterschiedlich von den Kontrollwerten; LD₅₀ [1]: 4600 mg/kg

**Q.** Which LD₅₀ [1] does the source give for CCCN(CCC)C(=O)C1Cc2sc3c(c2C1)C(c1ccccc1Cl)=NCc1nnc(C)n1-3 (stereo not drawn) [Substanz C] here?
**A.** 1700 mg/kg
